# Experimental data published in patent US12427175B2, “Fecal fungome and therapeutic efficacy of fecal microbiota transplantation” (priority 2018, dated 2025).
# “Also recorded” adds a separate entry of the source.
# Assays:
# [1] = tested on: Clostridium difficile infection (CDI); test: Randomised controlled trial of FMT versus vancomycin (STD) in patients with CDI: treatment outcome; assay type: in vivo, human
# Experimental: The current study was a sub-study from a randomised controlled trial (RCT) of FMT versus vancomycin (standard therapy, STD) for patients with CDI. Consecutive CDI subjects enrolled into this randomised controlled trial were invited to participate in a substudy of assessment of fecal microbiota. Patients were included if they had three or more loose or watery stools per day for at least two consecutive days or eight or more soft or loose stools in 48 hours and a positive stool test for C. difficile based on a two-step testing algorithm in our hospital, a positive GDH (Glutamate dehydrogenase) screening test followed by a positive polymerase chain reaction (PCR) test of C. difficile. A total of 31 subjects with CDI and 24 healthy household controls were recruited and stool samples at baseline were obtained for analyses of fungal and bacterial microbiomes. Among them, 24 CDI subjects consented to have stool samples collected serially after treatment for microbiome analysis. 16 CDI subjects were treated with FMT and 8 were treated with vancomycin, and they were followed up at baseline and at weeks 2, 4, 10 and 16 after treatment (FIG. 6). Subjects in the FMT group received 5 days of vancomycin followed by donor infused stool via nasojejunal route and those who had STD received oral vancomycin 500 mg orally four times per day for 10 days. A computer-generated randomization schedule was used to assign patients to the treatment sequences. All patients kept a stool diary and were questioned about stool frequency and consistency and medication use.
# Treatment response was defined as an absence of diarrhea or persistent diarrhea that could be explained by other causes with a negative stool test for C. difficile toxin, while relapse was defined as diarrhea with a positive stool test for C. difficile toxin. […]
# In subjects who received FMT, a nasoduodenal tube was inserted with radiology guidance. […] The tube was removed 30 minutes after the infusion, and patients were monitored for 2 hours. […]
# [2] = tested on: gut mycobiota; test: Fungal ITS2 sequencing of fecal DNA (gut mycobiota diversity, richness, composition); assay type: in vivo, human
# Experimental: (§1) Fecal DNA was isolated as described below. 100 mg fecal sample was pre-washed with 1 ml ddH2O and pelleted by centrifugation at 10,000×g for 1 minute. The fecal pellet was re-suspended in 800 μl TE buffer (pH 7.5), supplemented with 1.6 μl 2-Mercaptoethanol and 500 U lyticase (Sigma), and incubated at 37° C. for 60 min. The sample was then centrifuged at 10,000×g for 2 minutes and fecal DNA was subsequently extracted from the pellet using ZR Fecal DNA miniPrep kit (Zymo Research, Orange, CA) according to the protocol. Briefly, fecal pellet was added to the BashingBeadLysis Tube with 750 μl Lysis solution, and then processed at maximum speed for 10 minutes. The lysates were centrifuged at ≥10,000×g for 1 minute. The supernatant was transferred to a Zymo-Spin™ IV Spin Filter in a collection tube and centrifuged at 7,000×g for 1 minute. About 1,200 μl of fecal DNA binding buffer was added to the filtrate in the collection tube, followed by concentration and purification in a new filter tube. Finally, a total of 50 μl eluted DNA with a concentration at 20-100 ng/μl was prepared for each sample.
# The final fecal DNA for fungal sequencing was amplified based upon ITS2 (Internal transcribed spacer 2) region using primers as below and PrimeSTAR HS DNA Polymerase kit (TaKaRa, Japan). The primer pairs are ITS2-F: 5′-[…]-3′, ITS2-R: 5′-[…]-3′ (SEQ ID NOs 1 and 2, respectively). ITS2 amplicons were generated with 38 cycles of 3-step PCR: 98° C. 10 s, 59° C. 10 s, and 72° C. 30 s. PCR samples were then sequenced on the Illumina MiSeq PE300 platform (2×300 bp, BGI, China), 151,524±97,694 (number±SD) clean sequences obtained on average (sequence statistics in Table 4).
# Raw reads were filtered by SOAPnuke (v 1.5.3) (web site: soap.genomics.org.cn/) developed by BGI as follows: (i) adaptors removed, (ii) read removed if N base is more than 3% of the read, (iii) read removed if bases with quality low than 20 were more than 40% of read, (iv) all duplicates removed. Quality control and data analysis were further implemented in PIPITS (v 1.4.5) 31. Briefly, PIPITS_PREP prepares raw reads from Illumina MiSeq sequencers for ITS extraction; PIPITS_FUNITS extracts ITS2 from the reads; and PIPITS_PROCESS analyses the reads to produce operational taxonomic unit (OTU) abundance tables and the RDP taxonomic assignment table for downstream analysis. The quality trimmed and ITS2 extracted reads were aligned to fungi UNITE database exploiting RDP classifier 2.10 for taxonomic assignment to produce operational taxonomic unit (OTU) abundance table (based on sequence identity >97% identity) and phylotype abundance tables at different taxonomic levels, for downstream analysis.
# The fungal OTU and phylptype abundance data were imported into R 3.2.3. Richness, diversity, and evenness calculation were performed using the estimated richness function of the phyloseq package. Spearman correlation and their significance were calculated using the cor and cor.test functions in R, respectively. […] Correlation plots were generated using the corrplot package in R. Heat maps were generated using the pheatmap package in R.
# To compare differences in the configurations of fungal and bacterial microbiomes between CDI patients and healthy controls, between FMT responders and non-responders, between FMT treatment and vancomycin (STD) treatment, Lefse analyses were performed on the Huttenhower lab Galaxy server (web site: huttenhower.sph.harvard.edu/galaxy/) by importing the […] and bacterial relative abundance values and associated sample metadata, with FDR adjusted p value <0.05 considered significant and effect size calculated. […]
# [3] = tested on: gut bacterial microbiota; test: Bacterial 16S rRNA sequencing of fecal DNA (bacterial microbiota diversity, richness); assay type: in vivo, human; details: responders
# Experimental: as §1
# The final fecal DNA samples were subject to bacterial 16S rRNA V4 region amplification and sequenced on the Illumina MiSeq PE250 platform (2×250 bp, BGI, China), 132,081±65,429 (number±SD) sequences obtained on average (sequence statistics in Table 5). […]
# [4] = tested on: C. albicans; test: Enumeration of C. albicans in feces of mice by cultivation on SDA; assay type: in vivo, mouse (C57BL/6); details: day 4 after administration of C. albicans, fluconazole in drinking water
# Experimental: Mice was initially colonized with C. albicans (2×10^8 cfu per mouse) after 3 days of antibiotic cocktail treatment in the drinking water, followed by 4 days of fluconazole treatment supplemented in the drinking water (0.5 mg/mL, Sigma). […] Both C. difficile load and C. albicans load were enumerated by cultivation on Day 0 before FMT and Day 1 after FMT.
# C. albicans (10231, purchased from ATCC, USA) was administered to mice (2×10^8 cfu per mouse) via gavage after 3-day antibiotic treatment or supplemented in donor stool slurry at the time of donor stool infusion.
# [5] = tested on: C. difficile; test: Antifungal (fluconazole) treatment before FMT in mice with di-colonisation of C. albicans and C. difficile; assay type: in vivo, mouse (C57BL/6); details: recipient mice colonized with C. albicans; fluconazole 0.5 mg/mL in drinking water 4 days before stool infusion
# Experimental: Mice was initially colonized with C. albicans (2×10^8 cfu per mouse) after 3 days of antibiotic cocktail treatment in the drinking water, followed by 4 days of fluconazole treatment supplemented in the drinking water (0.5 mg/mL, Sigma). Then the mice were subjected to C. difficile administration (10^7 spores per mice) through gavage after a consecutive 1.5-day antibiotic cocktail- and 1.5-day free water-drinking. Human stool infusion was performed 2 days later after C. difficile gavage. Both C. difficile load and C. albicans load were enumerated by cultivation on Day 0 before FMT and Day 1 after FMT.
# Mouse stool were collected both before and after stool infusion. Fecal C. difficile and C. albicans burdens on day 0 before and day 1 after stool infusion were measured by cultivation. Samples were diluted in PBS and respectively plated on taurocholate cycloserine cefoxitin fructose agar (TCCFA) for quantification of C. difficile burden, on Sabouraud dextrose agar (SDA) for quantification of C. albicans load. Stool samples prior to C. albicans colonization from antibiotic-treated mice were plated on SDA to ensure that mice were C. albicans culture negative.
Compound,"subjects who developed recurrence of CDI (non-responders) ([1]; 16 subjects on FMT, 8 on vancomycin)","subjects cured of CDI / symptom-free with negative stool C. difficile toxin at last follow-up (responders) ([1]; 16 subjects on FMT, 8 on vancomycin, median follow-up of 16 weeks)","Recurrence at week ([1]; individual CDI subject with recurrence, listed as STD)",alterations in fungal richness and diversity during longitudinal follow-up ([2]; 8 CDI subjects treated with vancomycin),"CDI subjects with an increase in gut fungal richness after treatment ([2]; 11 out of 16 (FMT), 3 out of 8 (vancomycin)) [%]","CDI subjects with an increase in gut fungal diversity after treatment ([2]; 13 out of 16 (FMT), 3 out of 8 (vancomycin)) [%]",fungal genera enriched in treatment responders after treatment (LefSe) ([2]; all follow-up samples of treatment responders),genus Candida in fungal composition after treatment ([2]; during follow-up across STD subjects),"relative abundance of fecal C. albicans after treatment ([2]; last follow-up vs baseline, vancomycin: STD responders)",change in bacterial diversity after treatment [3],C. albicans in feces by cultivation [4],efficacy of FMT in clearing C. difficile infection after anti-fungal treatment [5]
CN[C@H](CC(C)C)C(=O)N[C@H]1C(=O)N[C@@H](CC(N)=O)C(=O)N[C@H]2C(=O)N[C@H]3C(=O)N[C@H](C(=O)N[C@H](C(=O)O)c4cc(O)cc(O)c4-c4cc3ccc4O)[C@H](O)c3ccc(c(Cl)c3)Oc3cc2cc(c3O[C@@H]2O[C@H](CO)[C@@H](O)[C@H](O)[C@H]2O[C@H]2C[C@](C)(N)[C@H](O)[C@H](C)O2)Oc2ccc(cc2Cl)[C@H]1O [vancomycin],three,5 of the 8 and Five of the eight,week 12; also recorded: week 7; also recorded: week 5,inconsistent alterations,37.5,37.5,"Candida, Talaromyces, Erythrobasidium, Periconia, Stemphylium, Ganoderma",marked expansion,decrease,significant increase,–,–
OC(Cn1cncn1)(Cn1cncn1)c1ccc(F)cc1F [fluconazole],–,–,–,–,–,–,–,–,–,–,negative,restored the efficacy of FMT in clearing C. difficile infection
